Results as given in paper PMC12920294, “Optimizing uPAR-targeting radiopeptides for improved tissue distribution: progress towards radionuclide therapy” (European Journal of Nuclear Medicine and Molecular Imaging, 2025).
Read-outs that look alike come from different tables or passages of the source.

Key:
[1] = test system: HEK-uPAR xenograft-bearing mice; conditions: mouse, in vivo
Description: (§1) HEK-uPAR xenografted mice were injected with the respective radiopeptide (5 MBq, 0.5 nmol/mouse, 100 µL 0.9% NaCl containing 0.05% BSA) and sacrificed at 4 h and 24 h after injection. […] The tissues and organs of interest were collected, weighed and counted for activity using a γ-counter (Wallac Wizard 1480, PerkinElmer). […] The results were presented as the average ± SD of n = 3 mice. The time-activity curves were determined for the uptake of [^177Lu]Lu-DOTA-AE105 and [^177Lu]Lu-uPAR-11 in the blood, HEK-uPAR xenografts, kidneys and liver based on non-decay corrected biodistribution data. For the blood, the initial uptake (t = 0) was set as 50% IA/g assuming a blood volume of 2 mL for CD1 nude mice. The initial uptake value (t = 0) for all other organs and tissues was set as 0% IA/g. […] The area under the curves over 48 h after injection (AUC0h→48 h) was calculated using GraphPad Prism software (version 10.1.1). Statistical analyses were performed by applying a one-way ANOVA test with a Dunnet’s multiple comparison post‐test to compare the data of the new radiopeptides with those of [^177Lu]Lu-DOTA-AE105 and a Tukey’s multiple comparisons post‐test to compare the novel radiopeptides among them. A p-value of < 0.05 was considered a statistically significant difference using GraphPad Prism software (version 10.1.1).

[2] = physchem; format: physicochemical; conditions: pH 7.4
Description: The ^177Lu-labeled peptides (50 MBq/nmol) were incubated in mouse or human blood plasma (10 MBq/200 µL) over an incubation period of 24 h at 37 °C. Aliquots and control samples of the radiopeptides diluted in saline were analyzed after 1 h, 4 h and 24 h using thin layer chromatography (TLC) as previously reported (Supplementary Material). The distribution coefficients (logD values) of the ^177Lu-labeled peptides (50 MBq/nmol) were determined using a shake-flask method according to a previously published procedure (Supplementary Material). Methods: The radiopeptides (50 MBq/nmol) were diluted in phosphate buffered saline (PBS) pH 7.4 to obtain an activity concentration of 10 MBq/500 µL. A sample of this radiopeptide solution (~0.5 MBq, 25 µL, 0.01 nmol) was added to a mixture of PBS pH 7.4 (1475 µL) and n-octanol (1500 µL). The vials were vortexed vigorously for 1 min followed by centrifugation (560 rcf, 25°C, 6 min) for phase separation. Aliquots were taken from each phase and measured in a γ-counter (Wallac Wizard 1480, PerkinElmer). The distribution coefficients were calculated as the logarithmic value of the ratio of counts per minute (cpm) measured in the n-octanol phase relative to the cpm measured in the PBS phase. The results were listed as average ± SD of the data obtained from 3 independent experiments, each performed with five replicates.

[3] = format: in vitro ADME; conditions: 1 µM
Description: The ^177Lu-labeled peptides (50 MBq/nmol) were incubated in mouse or human blood plasma (10 MBq/200 µL) over an incubation period of 24 h at 37 °C. Aliquots and control samples of the radiopeptides diluted in saline were analyzed after 1 h, 4 h and 24 h using thin layer chromatography (TLC) as previously reported (Supplementary Material). The distribution coefficients (logD values) of the ^177Lu-labeled peptides (50 MBq/nmol) were determined using a shake-flask method according to a previously published procedure (Supplementary Material).
Methods: A sample of each radiopeptide (50 MBq/nmol) was added to mouse blood plasma (Lot: 32321, Rockland Immunochemicals Inc., USA) or to human blood plasma (Stiftung Blutspende SRK Aargau-Solothurn, Switzerland) to obtain an activity concentration of 10 MBq/200 µL. The test samples were incubated at 37 °C for up to 24 h. Control samples referred to the radiopeptides which were instead diluted in saline at an activity concentration of 10 MBq/200 µL. Aliquots of each sample (2 µL, ~100 kBq) were taken after 1 h, 4 h and 24 h and investigated by means of thin layer chromatography (TLC). The employed method involved reversed-phase TLC plates (MERCK Analytical Chromatography, TLC Silica gel 60 RP-18 F254s) as stationary phase and ACN/citrate buffer (3:7; v/v; pH 5.5) as mobile phase. After the eluent reached the front line, the TLC plates were dried and exposed to a phosphor screen (Super resolution screen PSR10450013, PerkinElmer) for 1 min. The respective screen was developed using a storage phosphor system (Cyclone Plus, PerkinElmer) and analyzed using the OptiQuant Software (version 5.0, Bright Instrument Co Ltd., PerkinElmer).

[4] = in vivo; conditions: CD1 nude, mouse, 0.5 nmol/mouse, total radioactivity
Description: as §1

Structure (SMILES)	Xgrft-to-liver ratio [1]	logD [2]	Human blood plasma stability, intact radiopeptide ([3]; 1 h) [%]	Mouse blood plasma stability, intact radiopeptide ([3]; 1 h) [%]	Human blood plasma stability, intact radiopeptide ([3]; 4 h) [%]	Mouse blood plasma stability, intact radiopeptide ([3]; 4 h) [%]	Human blood plasma stability, intact radiopeptide ([3]; 24 h) [%]	Mouse blood plasma stability, intact radiopeptide ([3]; 24 h) [%]	tissue uptake at 4 h ([4]; Blood uptake) [%ID/g]	tissue uptake at 24 h ([4]; Blood uptake) [%ID/g]	tissue uptake at 4 h ([4]; Bone uptake) [%ID/g]	tissue uptake at 24 h ([4]; Bone uptake) [%ID/g]	tissue uptake at 4 h ([4]; Brain uptake) [%ID/g]	tissue uptake at 24 h ([4]; Brain uptake) [%ID/g]	tissue uptake at 4 h ([4]; HEK-uPAR xenograft uptake) [%ID/g]	tissue uptake at 24 h ([4]; HEK-uPAR xenograft uptake) [%ID/g]	tissue uptake at 4 h ([4]; Heart uptake) [%ID/g]	tissue uptake at 24 h ([4]; Heart uptake) [%ID/g]	tissue uptake at 4 h ([4]; Intestines uptake) [%ID/g]	tissue uptake at 24 h ([4]; Intestines uptake) [%ID/g]	further results
Cc1ccc(CCCC(=O)NCCCCCCCC(=O)NCCCC[C@H](NC(=O)CN2CCN(CC(=O)O)CCN(CC(=O)O)CCN(CC(=O)O)CC2)C(=O)N[C@@H](CC(=O)O)C(=O)N[C@@H](CC2CCCCC2)C(=O)N[C@@H](Cc2ccccc2)C(=O)N[C@H](CO)C(=O)N[C@H](CCCNC(=N)N)C(=O)N[C@@H](Cc2ccc(O)cc2)C(=O)N[C@@H](CC(C)C)C(=O)N[C@@H](Cc2c[nH]c3ccccc23)C(=O)N[C@@H](CO)C(N)=O)cc1 [[^177Lu]Lu-uPAR-12, metal not drawn]	1.3 ± 0.1	0.96 ± 0.15	100 ± 1	100 ± 1	99 ± 1	99 ± 1	98 ± 1	99 ± 1	12 ± 1	3.4 ± 1	1.4 ± 0.1	0.78 ± 0.15	0.24 ± 0.01	0.1 ± 0.03	6 ± 0.2	5.7 ± 0.7	4 ± 0.3	1.6 ± 0.2	1.5 ± 0.1	0.76 ± 0.12	tissue uptake at 4 h ([4]; Kidneys uptake): 3.9 ± 0.1 %ID/g; tissue uptake at 24 h ([4]; Kidneys uptake): 4.3 ± 0.3 %ID/g; tissue uptake at 4 h ([4]; Liver uptake): 5.3 ± 0.3 %ID/g; tissue uptake at 24 h ([4]; Liver uptake): 4.2 ± 0.3 %ID/g; tissue uptake at 4 h ([4]; Lung uptake): 7.2 ± 1.3 %ID/g; tissue uptake at 24 h ([4]; Lung uptake): 2.6 ± 0.6 %ID/g; tissue uptake at 4 h ([4]; Muscle uptake): 1.2 ± 0.1 %ID/g; tissue uptake at 24 h ([4]; Muscle uptake): 0.6 ± 0.22 %ID/g; tissue uptake at 4 h ([4]; Pancreas uptake): 1.4 ± 0.2 %ID/g; tissue uptake at 24 h ([4]; Pancreas uptake): 0.79 ± 0.24 %ID/g; tissue uptake at 4 h ([4]; Salivary glands uptake): 2.7 ± 0.2 %ID/g; tissue uptake at 24 h ([4]; Salivary glands uptake): 1.4 ± 0.2 %ID/g; tissue uptake at 4 h ([4]; Spleen uptake): 1.9 ± 0.1 %ID/g; tissue uptake at 24 h ([4]; Spleen uptake): 2 ± 0.6 %ID/g; tissue uptake at 4 h ([4]; Stomach uptake): 1.4 ± 0.1 %ID/g; tissue uptake at 24 h ([4]; Stomach uptake): 0.52 ± 0.16 %ID/g
Cc1ccc(CCCC(=O)NCCOCCOCCOCCOCCC(=O)NC[C@H](NC(=O)CN2CCN(CC(=O)O)CCN(CC(=O)O)CCN(CC(=O)O)CC2)C(=O)N[C@@H](CC(=O)O)C(=O)N[C@@H](CC2CCCCC2)C(=O)N[C@@H](Cc2ccccc2)C(=O)N[C@H](CO)C(=O)N[C@H](CCCNC(=N)N)C(=O)N[C@@H](Cc2ccc(O)cc2)C(=O)N[C@@H](CC(C)C)C(=O)N[C@@H](Cc2c[nH]c3ccccc23)C(=O)N[C@@H](CO)C(N)=O)cc1 [[^177Lu]Lu-uPAR-14, metal not drawn]	7.4 ± 1.0	-0.13 ± 0.08	100 ± 1	100 ± 1	100 ± 1	97 ± 4	97 ± 2	99 ± 2	4.5 ± 0.2	0.06 ± 0.01	0.66 ± 0.09	0.19 ± 0.03	0.1 ± 0.01	< 0.03	9 ± 0.5	3.4 ± 0.3	1.7 ± 0.1	0.15 ± 0.01	0.81 ± 0.04	0.21 ± 0.03	tissue uptake at 4 h ([4]; Kidneys uptake): 4 ± 0.3 %ID/g; tissue uptake at 24 h ([4]; Kidneys uptake): 2 ± 0.3 %ID/g; tissue uptake at 4 h ([4]; Liver uptake): 2 ± 0.2 %ID/g; tissue uptake at 24 h ([4]; Liver uptake): 0.47 ± 0.05 %ID/g; tissue uptake at 4 h ([4]; Lung uptake): 3 ± 0.6 %ID/g; tissue uptake at 24 h ([4]; Lung uptake): 0.3 ± 0.02 %ID/g; tissue uptake at 4 h ([4]; Muscle uptake): 0.51 ± 0.02 %ID/g; tissue uptake at 24 h ([4]; Muscle uptake): 0.05 ± 0.01 %ID/g; tissue uptake at 4 h ([4]; Pancreas uptake): 0.68 ± 0.03 %ID/g; tissue uptake at 24 h ([4]; Pancreas uptake): 0.12 ± 0.01 %ID/g; tissue uptake at 4 h ([4]; Salivary glands uptake): 1.1 ± 0.1 %ID/g; tissue uptake at 24 h ([4]; Salivary glands uptake): 0.26 ± 0.03 %ID/g; tissue uptake at 4 h ([4]; Spleen uptake): 0.99 ± 0.08 %ID/g; tissue uptake at 24 h ([4]; Spleen uptake): 0.54 ± 0.11 %ID/g; tissue uptake at 4 h ([4]; Stomach uptake): 0.69 ± 0.13 %ID/g; tissue uptake at 24 h ([4]; Stomach uptake): 0.16 ± 0.03 %ID/g
